In patent publication US20240122932A1, “Methods of Treating B-Cell Malignancy Using Bcl-2 Inhibitor” (BeiGene Switzerland GmbH, priority 2021, published 2024):

Key:
[1] = system: JeKo-1 human mantle cell lymphoma (MCL) subcutaneous xenograft; assay: JeKo-1 human MCL subcutaneous xenograft model, Bcl-2 inhibitor with BTK inhibitor; format: in vivo, NCG mice; settings: for TGI (%): day 21
Experimental: JeKo-1 cells were maintained as suspension cell cultures at 37° C. in a 5% CO2 atmosphere. Five to six-week-old female NCG mice were purchased from Gempharmatech of Information Technology Center. All animals were maintained under specific pathogen free (SPF) “full barrier” condition with free access to food and water. […] Mice were fed with complete granulated feed with Co60 radiosterilization (Beijing Ke Ao Xie Li Feed Co., Ltd.). All experiments were carried out in accordance with BeiGene's IACUC.
Re-suspended cells were placed on ice prior to inoculation. […] Each animal was injected subcutaneously with 1×10^7 cells in 200 μL of cell suspension in the right front flank via a 26-gauge needle. After implantation, primary tumor volume was measured in two dimensions using a caliper.
Transplanted animals were randomized into 8 groups with 10 mice per group on day 0 according to transplantation sequence and body weight. […] Treatments were administered by oral gavage (p.o.) in a volume of 10 mL/kg body weight. Body weight was assessed immediately before dosing and volume dosed was adjusted accordingly.
Individual body weight was recorded twice weekly, with mice being monitored daily for clinical signs of toxicity for the duration of the study. Mice were euthanized using carbon dioxide when their tumor volume reached 2,000 mm^3, the tumor was ulcerated, or body weight loss exceeded 20%.
Tumor volume (TV) was calculated using the formula: TV=0.5×(a×b^2) where a and b are the long and short diameters of the tumor, respectively. […] (treated t=treated tumor volume at time t, vehicle t=vehicle tumor volume at time t)

[2] = system: patients with R/R B-cell malignancies; assay: phase 1 clinical study: safety, tolerability, DLT, MTD; format: in vivo
Experimental: A phase 1 study (dose escalation and safety expansion) to determine safety, tolerability, maximum tolerated dose ([…]), and recommended phase 2 dose (RP2D) of Compound 1 in patients with R/R B-cell malignancies was conducted. (Table 6-1A).
Dose-escalation (Part 1) occurs in independent cohorts categorized by patient disease type. These cohorts are continued until a recommended Phase 2 dose (RP2D) is identified, which is then used in corresponding expansion cohorts (Part 2).
Part 1 Monotherapy Ramp-Up Schedule and Dose Finding • 1) Cohort 1A: Cohort 1A consists of patients with relapsed/refractory B-cell non-Hodgkin lymphoma (R/R B-cell NHL) excluding mantle cell lymphoma (MCL). These patients are expected to be at low risk of tumor lysis syndrome (low TLS risk), and are treated with a short ramp-up schedule reaching target dose on Day 3. Patients in this cohort receive escalating doses of Compound 1 monotherapy: 40 mg, 80 mg, 160 mg, 320 mg, and 640 mg (unless adjusted by Safety Monitoring Committee [SMC] recommendation). • 2) Cohort 1B is opened, when ≥1 tolerable dose level of Cohort 1A was determined. It consists of patients with low-tumor-burden R/R CLL/SLL. This cohort pursues dose finding, including evaluation of both ramp-up schedule and target dose. Patients increase the ramp-up dose weekly until the target dose for the cohort is reached. The ramp-up steps is 1 mg, 2 mg, 5 mg, 10 mg, 20 mg, 40 mg, 80 mg, 160 mg, 320 mg, and 640 mg (unless adjusted by SMC recommendation). […]. • 3) Cohort 1C: This Cohort consists of patients with high-tumor-burden R/R chronic lymphocytic leukemia/small lymphocytic lymphoma (R/R CLL/SLL). This cohort will not be dosed until the RP2D for Cohort 1B is established. The objective of this cohort is to confirm, in patients with high-tumor-burden CLL/SLL, the safety of the monotherapy ramp-up schedule and RP2D established in patients with low-tumor-burden CLL/SLL. • 4) Cohort 1D: This Cohort consists of patients with R/R MCL. This cohort will not be dosed until the RP2D for Cohort 1B is established. The objective of this cohort is to confirm, in patients with R/R MCL, the safety of the monotherapy ramp-up schedule and RP2D established in patients with low tumor-burden CLL/SLL. • Cohort 1D′: This Cohort consists of patients with R/R MCL. And, the target dosage are 160 and 320 mg. • 5) Cohort 1E: This Cohort consists of patients with R/R waldenstrom macroglobulinemia (R/R WM). This cohort will not be dosed until the RP2D for Cohort 1B is established. The objective of this cohort is to confirm, in patients with R/R WM, the safety of the monotherapy ramp-up schedule and RP2D established in patients with low tumor-burden CLL/SLL.
All dose cohorts would be reviewed by a safety monitoring committee (SMC) before opening subsequent dose levels or declaring an MTD/RP2D.
The study also includes dose escalation and expansion cohorts for the combination of Compound 1 and Bruton tyrosine kinase (BTK) inhibitor Zanubrutinib in patients with selected B-cell malignancy, such as CLL/SLL and mantle cell lymphoma (MCL). (Table 6-2A). Patients in the combination therapy cohorts receive Zanubrutinib 320 mg daily (160 mg twice a day [BID] or 320 mg once a day [QD]) beginning 8-12 weeks before Compound 1 is introduced. And, the corresponding dose-escalation and expansion are conducted in Part 3 and Part 4):
Dose finding is pursued in Patients with R/R CLL/SLL or R/R MCL who are Bel-2-inhibitor naive and have not progressed on a BTK inhibitor, including evaluation of ramp-up schedule and target dose of Compound 1 when used in combination with Zanubrutinib. The Compound 1 dose vary but the Zanubrutinib dose is fixed at 320 mg/day (160 mg twice daily or 320 mg once daily). The ramp-up dose increases weekly until the target dose for the cohort is reached. […]

[3] = 36 patients, monotherapy N = 25, combination therapy N = 11
[4] = 58 patients, monotherapy n = 32, combination n = 26

For `CC(C)c1ccccc1[C@@H]1CCCN1C1CC2(CCN(c3ccc(C(=O)NS(=O)(=O)c4ccc(NCC5CCC(C)(O)CC5)c([N+](=O)[O-])c4)c(Oc4cnc5[nH]ccc5c4)c3)CC2)C1` (stereo partly drawn) [Compound 1, 2-((1H-pyrrolo[2,3-b]pyridin-5-yl)oxy)-N-((4-((((1r,4r)-4-hydroxy-4-methylcyclohexyl)methyl)amino)-3-nitrophenyl)sulfonyl)-4-(2-((S)-2-(2-isopropylphenyl)pyrrolidin-1-yl)-7-azaspiro[3.5]nonan-7-yl)benzamide], the “Mean TV (D 21) (mm^3 ± SEM)” value ([1]; 5 mpk p.o. QD) was 1293.3 ± 100.0 mm^3, the “Mean TV (D 21) (mm^3 ± SEM)” value ([1]; 15 mpk p.o. QD) was 929.5 ± 73.6 mm^3 and the “Mean TV (D 21) (mm^3 ± SEM)” value ([1]; 50 mpk p.o. QD) was 927.5 ± 100.6 mm^3. The “TGI (%)” value ([1]; 5 mpk p.o. QD, 5 mg/kg) was 29%, the “TGI (%)” value ([1]; 15 mpk p.o. QD, 15 mg/kg) was 49% and the “TGI (%)” value ([1]; 50 mpk p.o. QD, 50 mg/kg) was 49%. For the same molecule, the “AEs, n (%): AEs leading to discontinuation of Compound 1” value [2, 3] was 1 n (%), the “AEs, n (%): AEs leading to dose reduction of Compound 1” value [2, 3] was 0 n (%) and the “AEs, n (%): AEs leading to hold of Compound 1” value [2, 3] was 4 n (%). For the same molecule, the “AEs, n (%): Grade ≥3 AEs” value [2, 3] was 11 n (%), the “AEs, n (%): Serious AEs” value [2, 3] was 9 n (%) and the “AEs, n (%): Total” value [2, 3] was 22 n (%). For the same molecule, the “AEs, n (%): Leading to death” value ([2]; 36 patients, monotherapy N = 25, combination therapy N = 11, neither death related to study drug) was 2 n (%), the “Diarrhea, All Grade, n (%)” value [2, 4] was 8 n (%) and the “Diarrhea, Grade ≥3, n (%)” value [2, 4] was 0 n (%). The “Fatigue, All Grade, n (%)” value [2, 4] was 8 n (%), the “Fatigue, Grade ≥3, n (%)” value [2, 4] was 0 n (%) and the “Headache, All Grade, n (%)” value [2, 4] was 5 n (%). For the same molecule, the “Headache, Grade ≥3, n (%)” value [2, 4] was 0 n (%), the “Nausea, All Grade, n (%)” value [2, 4] was 12 n (%) and the “Nausea, Grade ≥3, n (%)” value [2, 4] was 0 n (%). For the same molecule, the DLTs ([2]; Cohort 1A NHL, monotherapy, 40-mg (n=3), 80-mg (n=4) and 320-mg (n=3) dose cohorts) was “no disease-limiting toxicities (DLTs)”, the DLTs ([2]; Cohort 1A NHL, monotherapy, 160-mg (n=3+1) dose cohort) was “one DLT of grade 3 febrile neutropenia” and the MTD ([2]; Cohort 1A NHL, monotherapy, all dose cohorts completed) was “no MTD reached through 640 mg”. For the same molecule, the DLTs ([2]; Cohort 1B R/R CLL, monotherapy, 80 mg target dose level (n=4)) was “one DLT of grade 4 neutropenia”, the “patients with grade ≥3 neutropenia” value ([2]; monotherapy) was 5 patients and the patients with neutropenia ([2]; monotherapy) was 6 patients. The “Abdominal Pain, All Grade, n (%)” value ([2]; monotherapy n = 32) was 4 n (%), the “Abdominal Pain, Grade ≥3, n (%)” value ([2]; monotherapy n = 32) was 2 n (%) and the “Constipation, All Grade, n (%)” value ([2]; monotherapy n = 32) was 5 n (%). For the same molecule, the “Constipation, Grade ≥3, n (%)” value ([2]; monotherapy n = 32) was 0 n (%), the “Dizziness, All Grade, n (%)” value ([2]; monotherapy n = 32) was 5 n (%) and the “Dizziness, Grade ≥3, n (%)” value ([2]; monotherapy n = 32) was 0 n (%). For the same molecule, the “Fall, All Grade, n (%)” value ([2]; monotherapy n = 32) was 5 n (%), the “Fall, Grade ≥3, n (%)” value ([2]; monotherapy n = 32) was 2 n (%) and the “Neutropenia, All Grade, n (%)” value ([2]; monotherapy n = 32) was 8 n (%). The “Neutropenia, Grade ≥3, n (%)” value ([2]; monotherapy n = 32) was 6 n (%), the “Oedema peripheral, All Grade, n (%)” value ([2]; monotherapy n = 32) was 4 n (%) and the “Oedema peripheral, Grade ≥3, n (%)” value ([2]; monotherapy n = 32) was 0 n (%). For the same molecule, the “Pyrexia, All Grade, n (%)” value ([2]; monotherapy n = 32) was 6 n (%), the “Pyrexia, Grade ≥3, n (%)” value ([2]; monotherapy n = 32) was 1 n (%) and the “Thrombocytopenia, All Grade, n (%)” value ([2]; monotherapy n = 32) was 4 n (%). The “Thrombocytopenia, Grade ≥3, n (%)” value ([2]; monotherapy n = 32) was 2 n (%), the “Urinary tract infection, All Grade, n (%)” value ([2]; monotherapy n = 32) was 4 n (%) and the “Urinary tract infection, Grade ≥3, n (%)” value ([2]; monotherapy n = 32) was 0 n (%). For the same molecule, the “laboratory TLS” value ([2]; monotherapy, one high-risk patient with CLL, resolved with no intervention) was under 2% and the tolerable dose ([2]; result of 58 patients, monotherapy or in combination with Zanubrutinib, MTD not yet reached) was at most 640 mg.
